Measurements taken from patent US9833497B2, “Human originated EGF domain proteins and use of the same” (CHENGDU SOURCEBIO LIMITED-LIABILITY COMPANY, priority 2013, dated 2017).

Tests used:
Type in all cases: cell-based
Klebsiella pneumonia = assay: MIC against Gram-negative bacteria: Klebsiella pneumonia; details: for MIC against K. pneumonia / MIC (μg/mL) K. pneumonia: 5×10^5 CFU/mL
Outline: (§1)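 MIC, the lowest recombinant protein concentration giving no bacterial growth, found by two-fold serial dilution of human EGF-domain proteins in triplicate. Inoculum 5×10^5 CFU/mL in LB from cultures at McFarland 0.5; plates incubated at 37° C, 175 rpm shaking.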

E. coli DH5α = assay: Antibacterial activity: MIC and growth curve against E. coli DH5α in 96-well plate; details: minimal inhibitory concentration against E. coli DH5α; 96-well plate, 5×10^5 CFU/mL, 37° C., judged after 8 h
Outline: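 MIC taken as lowest protein level with no bacterial growth, tracked by A600 every 30 min during 37 °C, 175 rpm culture. Two-fold protein series 50-12.5 μg/mL final, triplicate wells, against 5×10^5 CFU/mL of LB-washed mid-log cells.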

Proteus mirabilis = assay: MIC against Gram-negative bacteria: Proteus mirabilis; details: for MIC against P. mirabilis / MIC (μg/mL) P. mirabilis: 5×10^5 CFU/mL
Outline: as §1

E. coli BL21 = assay: MIC against Gram-negative bacteria: E. coli BL21; details: for MIC against E. coli BL21 / MIC (μg/mL) E. coli BL21: 5×10^5 CFU/mL
Outline: as §1

Pseudomonas aeruginosa = assay: MIC against Gram-negative bacteria: Pseudomonas aeruginosa; details: for MIC against P. aeruginosa / MIC (μg/mL) P. aeruginosa: 5×10^5 CFU/mL
Outline: as §1

Proteus vulgaris = assay: MIC against Gram-negative bacteria: Proteus vulgaris; details: for MIC against P. vulgaris / MIC (μg/mL) P. vulgaris: 5×10^5 CFU/mL
Outline: as §1

Moraxella catarrhalis = assay: MIC against Gram-negative bacteria: Moraxella catarrhalis; details: for MIC against M. catarrhalis / MIC (μg/mL) M. catarrhalis: 5×10^5 CFU/mL
Outline: as §1

Serratia marcescens = assay: MIC against Gram-negative bacteria: Serratia marcescens; details: for MIC against S. marcescens / MIC (μg/mL) S. marcescens: 5×10^5 CFU/mL
Outline: as §1

Citrobacter diversus = assay: MIC against Gram-negative bacteria: Citrobacter diversus; details: for MIC against C. diversus / MIC (μg/mL) C. diversus: 5×10^5 CFU/mL
Outline: as §1

Aeromonas hydrophila = assay: MIC against Gram-negative bacteria: Aeromonas hydrophila; details: for MIC against A. hydrophila / MIC (μg/mL) A. hydrophila: 5×10^5 CFU/mL
Outline: as §1

Enterobacter cloacae = assay: MIC against Gram-negative bacteria: Enterobacter cloacae; details: for MIC against E. cloacae / MIC (μg/mL) E. cloacae: 5×10^5 CFU/mL
Outline: as §1

[1] = Klebsiella pneumonia, 96-well plate, 37° C., 10 h
[2] = Proteus mirabilis, 96-well plate, 37° C., 10 h
[3] = E. coli BL21, 96-well plate, 37° C., 10 h
[4] = Pseudomonas aeruginosa, 96-well plate, 37° C., 10 h
[5] = Proteus vulgaris, 96-well plate, 37° C., 10 h
[6] = Moraxella catarrhalis, 96-well plate, 37° C., 10 h
[7] = Serratia marcescens, 96-well plate, 37° C., 10 h
[8] = Citrobacter diversus, 96-well plate, 37° C., 10 h
[9] = Aeromonas hydrophila, 96-well plate, 37° C., 10 h
[10] = Enterobacter cloacae, 96-well plate, 37° C., 10 h
[11] = K. pneumonia, 10 h cultivation at 37° C.
[12] = P. mirabilis, 10 h cultivation at 37° C.
[13] = E. coli BL21, 10 h cultivation at 37° C.
[14] = P. aeruginosa, 10 h cultivation at 37° C.
[15] = P. vulgaris, 10 h cultivation at 37° C.
[16] = M. catarrhalis, 10 h cultivation at 37° C.
[17] = S. marcescens, 10 h cultivation at 37° C.
[18] = C. diversus, 10 h cultivation at 37° C.
[19] = A. hydrophila, 10 h cultivation at 37° C.
[20] = E. cloacae, 10 h cultivation at 37° C.

PRT1236 (IGDGCIDMCSGHGRCIQGNCVCDEQWGGLYCD; listed as Homo sapiens)
MIC against K. pneumonia (Klebsiella pneumonia; [1]): 50 µg/mL
MIC (E. coli DH5α): 50 µg/mL
MIC against P. mirabilis (Proteus mirabilis; [2]): 25 µg/mL
MIC against E. coli BL21 (E. coli BL21; [3]): 25 µg/mL
MIC against P. aeruginosa (Pseudomonas aeruginosa; [4]): 12.5 µg/mL
MIC against P. vulgaris (Proteus vulgaris; [5]): 12.5 µg/mL
MIC against M. catarrhalis (Moraxella catarrhalis; [6]): 12.5 µg/mL
MIC against S. marcescens (Serratia marcescens; [7]): 25 µg/mL
MIC against C. diversus (Citrobacter diversus; [8]): 12.5 µg/mL
MIC against A. hydrophila (Aeromonas hydrophila; [9]): 50 µg/mL
MIC against E. cloacae (Enterobacter cloacae; [10]): 12.5 µg/mL

PRT447 (DVDECAQALHDRRPSQDCHNLSGSYQCTCPDGYRKIGPE; listed as Homo sapiens)
MIC against K. pneumonia (Klebsiella pneumonia; 96-well plate, 37° C., 10 h): 25 µg/mL
MIC (E. coli DH5α): 50 µg/mL
MIC against P. mirabilis (Proteus mirabilis; 96-well plate, 37° C., 10 h): 50 µg/mL
MIC against E. coli BL21 (E. coli BL21; 96-well plate, 37° C., 10 h): 25 µg/mL
MIC against P. aeruginosa (Pseudomonas aeruginosa; 96-well plate, 37° C., 10 h): 12.5 µg/mL
MIC against P. vulgaris (Proteus vulgaris; 96-well plate, 37° C., 10 h): 12.5 µg/mL
MIC against M. catarrhalis (Moraxella catarrhalis; 96-well plate, 37° C., 10 h): 25 µg/mL
MIC against S. marcescens (Serratia marcescens; 96-well plate, 37° C., 10 h): 50 µg/mL
MIC against C. diversus (Citrobacter diversus; 96-well plate, 37° C., 10 h): 12.5 µg/mL
MIC against A. hydrophila (Aeromonas hydrophila; 96-well plate, 37° C., 10 h): 25 µg/mL
MIC against E. cloacae (Enterobacter cloacae; 96-well plate, 37° C., 10 h): 50 µg/mL

PRT901 (DINECVLSPCRHGASCQNTHGGYRCHCQAGYSGRNCE; listed as Homo sapiens)
MIC (Klebsiella pneumonia; [11]): 50 µg/mL
MIC (E. coli DH5α): 25 µg/mL
MIC (Proteus mirabilis; [12]): 25 µg/mL
MIC (E. coli BL21; [13]): 25 µg/mL
MIC (Pseudomonas aeruginosa; [14]): 12.5 µg/mL
MIC (Proteus vulgaris; [15]): 12.5 µg/mL
MIC (Moraxella catarrhalis; [16]): 50 µg/mL
MIC (Serratia marcescens; [17]): 25 µg/mL
MIC (Citrobacter diversus; [18]): 25 µg/mL
MIC (Aeromonas hydrophila; [19]): 12.5 µg/mL
MIC (Enterobacter cloacae; [20]): 25 µg/mL

PRT898 (NNNECESNPCVNGGTCKDMTSGYVCTCREGFSGPNCQ; listed as Homo sapiens)
MIC (Klebsiella pneumonia; [11]): 12.5 µg/mL
MIC (E. coli DH5α): 25 µg/mL
MIC (Proteus mirabilis; [12]): 12.5 µg/mL
MIC (E. coli BL21; [13]): 50 µg/mL
MIC (Pseudomonas aeruginosa; [14]): 25 µg/mL
MIC (Proteus vulgaris; [15]): 25 µg/mL
MIC (Moraxella catarrhalis; [16]): 12.5 µg/mL
MIC (Serratia marcescens; [17]): 12.5 µg/mL
MIC (Citrobacter diversus; [18]): 12.5 µg/mL
MIC (Aeromonas hydrophila; [19]): 12.5 µg/mL
MIC (Enterobacter cloacae; [20]): 50 µg/mL

PRT121 (CGPCFNNGVPILEGTSCRCQCRLGSLGAACE; listed as Homo sapiens)
MIC (μg/mL) K. pneumonia (Klebsiella pneumonia; [1]): 12.5 µg/mL
MIC (E. coli DH5α): 25 µg/mL
MIC (μg/mL) P. mirabilis (Proteus mirabilis; [2]): 25 µg/mL
MIC (μg/mL) E. coli BL21 (E. coli BL21; [3]): 12.5 µg/mL
MIC (μg/mL) P. aeruginosa (Pseudomonas aeruginosa; [4]): 25 µg/mL
MIC (μg/mL) P. vulgaris (Proteus vulgaris; [5]): 50 µg/mL
MIC (μg/mL) M. catarrhalis (Moraxella catarrhalis; [6]): 12.5 µg/mL
MIC (μg/mL) S. marcescens (Serratia marcescens; [7]): 25 µg/mL
MIC (μg/mL) C. diversus (Citrobacter diversus; [8]): 50 µg/mL
MIC (μg/mL) A. hydrophila (Aeromonas hydrophila; [9]): 12.5 µg/mL
MIC (μg/mL) E. cloacae (Enterobacter cloacae; [10]): 50 µg/mL

PRT1353 (SDMSCPNDCHQHGRCVNGMCVCDDGYTGEDCR; listed as Homo sapiens)
MIC against K. pneumonia (Klebsiella pneumonia; Klebsiella pneumonia, 10 h cultivation at 37° C.): 25 µg/mL
MIC (E. coli DH5α): 12.5 µg/mL
MIC against P. mirabilis (Proteus mirabilis; Proteus mirabilis, 10 h cultivation at 37° C.): 12.5 µg/mL
MIC against E. coli BL21 (E. coli BL21; [13]): 25 µg/mL
MIC against P. aeruginosa (Pseudomonas aeruginosa; Pseudomonas aeruginosa, 10 h cultivation at 37° C.): 50 µg/mL
MIC against P. vulgaris (Proteus vulgaris; Proteus vulgaris, 10 h cultivation at 37° C.): 25 µg/mL
MIC against M. catarrhalis (Moraxella catarrhalis; Moraxella catarrhalis, 10 h cultivation at 37° C.): 25 µg/mL
MIC against S. marcescens (Serratia marcescens; Serratia marcescens, 10 h cultivation at 37° C.): 50 µg/mL
MIC against C. diversus (Citrobacter diversus; Citrobacter diversus, 10 h cultivation at 37° C.): 50 µg/mL
MIC against A. hydrophila (Aeromonas hydrophila; Aeromonas hydrophila, 10 h cultivation at 37° C.): 25 µg/mL
MIC against E. cloacae (Enterobacter cloacae; Enterobacter cloacae, 10 h cultivation at 37° C.): 12.5 µg/mL

PRT886 (RGPRCSQPGETCLNGGKCEAANGTEACVCGGAFVGPRCQ; listed as Homo sapiens)
MIC (μg/mL) K. pneumonia (Klebsiella pneumonia; [11]): 12.5 µg/mL
MIC (E. coli DH5α): 25 µg/mL
MIC (μg/mL) P. mirabilis (Proteus mirabilis; [12]): 25 µg/mL
MIC (μg/mL) E. coli BL21 (E. coli BL21; [13]): 12.5 µg/mL
MIC (μg/mL) P. aeruginosa (Pseudomonas aeruginosa; [14]): 25 µg/mL
MIC (μg/mL) P. vulgaris (Proteus vulgaris; [15]): 12.5 µg/mL
MIC (μg/mL) M. catarrhalis (Moraxella catarrhalis; [16]): 12.5 µg/mL
MIC (μg/mL) S. marcescens (Serratia marcescens; [17]): 25 µg/mL
MIC (μg/mL) C. diversus (Citrobacter diversus; [18]): 25 µg/mL
MIC (μg/mL) A. hydrophila (Aeromonas hydrophila; [19]): 12.5 µg/mL
MIC (μg/mL) E. cloacae (Enterobacter cloacae; [20]): 25 µg/mL
